Entries after “also recorded” stand apart in the source; their conditions may differ. Like-named read-outs stand apart in the source and are kept apart here.
Assays:
Format in all cases: cell-based
[1] = biological target: T1, TAS2R49 (Homo sapiens, UniProt P59543); test: In vitro calcium imaging assay on cloned TAS2R49 in transfected HEK293T cells; conditions: for TAS2R49 screening result: single dose, qualitative
T1 construct: expressed in transfected cells; host or cells: HEK293T
T1 sequence (P59543 1-309): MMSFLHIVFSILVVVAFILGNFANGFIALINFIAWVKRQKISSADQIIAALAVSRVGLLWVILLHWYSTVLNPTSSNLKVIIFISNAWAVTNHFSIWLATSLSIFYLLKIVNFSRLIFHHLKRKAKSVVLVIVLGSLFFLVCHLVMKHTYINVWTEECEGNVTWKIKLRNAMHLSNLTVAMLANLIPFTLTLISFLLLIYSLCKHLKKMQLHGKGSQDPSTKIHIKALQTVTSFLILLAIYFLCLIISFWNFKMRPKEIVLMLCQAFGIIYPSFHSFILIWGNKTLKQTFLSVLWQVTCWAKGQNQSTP
Source text: (§1) Pure phytochemicals were submitted to in vitro assays with a platform of twenty cloned receptors of the bitter taste TAS2R family and four receptors of the TRP family related to the perception of taste and somatosensory sensations. All experiments have been repeated three times, each time with four replicates. […] For simplicity, only those bitter taste receptors having reproducible positive assay, namely TASR10, 14 and 49, are reported (Table 1).
(§2) For those compounds showing activity on one or more receptor(s), the concentration/response curves were plotted and the EC50 calculated.
(§3) For the biological tests, several compounds were purchased as references from different suppliers (Sigma Aldrich, ChromaDex, Irvine, CA, USA, and Tocris Bioscience, Bristol, UK) and dissolved in assay buffer (130 mM NaCl, 5 mM KCl, 1 mM MgCl2, 2 mM CaCl2, 5 mM NaHCO3 and 20 mM HEPES, pH 7.4) or in a mixture of assay buffer and DMSO, never exceeding a final DMSO concentration of 0.5% (v/v) to avoid toxic effects and possible artefacts on transfected cells.
(§4) All human TAS2R and G15Gi1 cDNAs were produced as reported in Bassoli et al. cDNAs for human TRPA1-M5-M8-V1-V4 were cloned into a pcDNA6 expression vector (Invitrogen-Thermo Fisher, Waltham, MA, USA).
(§5) All experiments were performed using HEK293T cells (ATCC).
(§6) For the bitter platform experiments, cells were cultured, transfected and analyzed as previously described.
(§7) For the bitter platform experiments, data analyses were performed as previously described.
(§8) For the calculation of concentration-response curves, responses were calculated as the difference between maximal and minimal relative fluorescence unit (RFU) values in a selected time window (11–60 s) and were normalized to the basal well fluorescence (Time Point 1, before compound injection) in order to compensate for differences in cell density (∆F/F0). All of the experiments have been repeated three times, each time with four replicates. All of the results are averages of at least four replicates. Raw data are available in Supplementary Material, Figures S3–S6.

[2] = biological target: T2, TAS2R10 (Homo sapiens, UniProt Q9NYW0); test: In vitro calcium imaging assay on cloned TAS2R10 in transfected HEK293T cells; conditions: for TAS2R10 screening result: single dose, qualitative
T2 construct: expressed in transfected cells; host or cells: HEK293T
T2 sequence (Q9NYW0 1-307): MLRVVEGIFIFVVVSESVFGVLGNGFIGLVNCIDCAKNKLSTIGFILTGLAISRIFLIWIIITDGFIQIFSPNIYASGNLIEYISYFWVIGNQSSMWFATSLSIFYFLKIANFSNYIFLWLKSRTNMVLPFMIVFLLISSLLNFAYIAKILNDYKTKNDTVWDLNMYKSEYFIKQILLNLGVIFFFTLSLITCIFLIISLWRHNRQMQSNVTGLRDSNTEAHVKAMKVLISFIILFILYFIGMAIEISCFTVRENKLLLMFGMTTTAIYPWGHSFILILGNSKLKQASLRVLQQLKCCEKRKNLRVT
Source text: as §1, §2, §3, §4, §5, §6, §7, §8

[3] = biological target: T3, TRPV1 (Homo sapiens, UniProt Q8NER1); test: In vitro Fluo8-NW calcium assay (FLIPR) on HEK293T cells stably overexpressing TRPV1; conditions: for TRPV1 screening result: single dose, qualitative
T3 construct: expressed in transfected cells
Source text: as §1, §3, §4, §5
(§9) For TRP platform experiments, cells were cultured in MEM/EBSS medium (ECB2071L EuroClone, Milan, Italy) plus 10% (v/v) fetal bovine serum (FBS) (26400-044 Gibco, Karlsruhe, Germany) and 1% (v/v) Pen/Strep 10K/10K stock (17-602E Lonza, Basel, Switzerland). Stable cell lines were generated overexpressing each TRP channel, and clones were selected with 500 µg/mL of G418 (ant-gn-5 Invivogen, Karlsruhe, Germany). To analyze TRP receptor responses, cells were plated at a concentration of 20,000 cells/well in 384-well plates (GR-4330 Twin Helix srl, Milan, Italy). Cellular responses were measured 24 h after seeding.
(§10) For TRPA1-M8-V1-V4 experiments, a solution of Fluo8-NW calcium-sensitive dye (36316 AAT BioQuest, Sunnyvale, CA, USA) was prepared using the assaybuffer and diluting the kit components 1:2 according to the manufacturer’s instructions. Twenty-four hours after seeding, cells were incubated one hour at RT, loaded with 40 µL of Fluo8-NW solution for each well and incubated again for one hour at RT before data acquisition.
(§11) For TRPM5 experiments, cells were loaded 24 h after seeding with a Membrane Potential Dye (R8034 MDC) solution in assay buffer according to the manufacturer’s instructions and incubated at 37 °C for 1 h before acquisition. All experiments were performed using a fluorometric imaging plate reader (FLIPR^TETRA, Molecular Devices equipped with ICCD Camera from Stanford Photonics, INC, (Palo Alto, CA, USA) and kinetics were visualized with Molecular Devices’ Screenworks 3.0 (Sunnyvale, CA, USA).
as §8

[4] = biological target: T4, TRPA1 (Homo sapiens, UniProt O75762); test: In vitro Fluo8-NW calcium assay (FLIPR) on HEK293T cells stably overexpressing TRPA1; conditions: for TRPA1 screening result: single dose, qualitative
T4 construct: expressed in transfected cells
Source text: Pure phytochemicals were submitted to in vitro assays with a platform of twenty cloned receptors of the bitter taste TAS2R family and four receptors of the TRP family related to the perception of taste and somatosensory sensations. All experiments have been repeated three times, each time with four replicates.
as §2, §3, §4, §5, §9, §10, §11, §8

[5] = concentration/response curve, values with ≥ estimated, curve did not saturate, read-out: EC50 TAS2R10

T3 sequence (Q8NER1 whole entry): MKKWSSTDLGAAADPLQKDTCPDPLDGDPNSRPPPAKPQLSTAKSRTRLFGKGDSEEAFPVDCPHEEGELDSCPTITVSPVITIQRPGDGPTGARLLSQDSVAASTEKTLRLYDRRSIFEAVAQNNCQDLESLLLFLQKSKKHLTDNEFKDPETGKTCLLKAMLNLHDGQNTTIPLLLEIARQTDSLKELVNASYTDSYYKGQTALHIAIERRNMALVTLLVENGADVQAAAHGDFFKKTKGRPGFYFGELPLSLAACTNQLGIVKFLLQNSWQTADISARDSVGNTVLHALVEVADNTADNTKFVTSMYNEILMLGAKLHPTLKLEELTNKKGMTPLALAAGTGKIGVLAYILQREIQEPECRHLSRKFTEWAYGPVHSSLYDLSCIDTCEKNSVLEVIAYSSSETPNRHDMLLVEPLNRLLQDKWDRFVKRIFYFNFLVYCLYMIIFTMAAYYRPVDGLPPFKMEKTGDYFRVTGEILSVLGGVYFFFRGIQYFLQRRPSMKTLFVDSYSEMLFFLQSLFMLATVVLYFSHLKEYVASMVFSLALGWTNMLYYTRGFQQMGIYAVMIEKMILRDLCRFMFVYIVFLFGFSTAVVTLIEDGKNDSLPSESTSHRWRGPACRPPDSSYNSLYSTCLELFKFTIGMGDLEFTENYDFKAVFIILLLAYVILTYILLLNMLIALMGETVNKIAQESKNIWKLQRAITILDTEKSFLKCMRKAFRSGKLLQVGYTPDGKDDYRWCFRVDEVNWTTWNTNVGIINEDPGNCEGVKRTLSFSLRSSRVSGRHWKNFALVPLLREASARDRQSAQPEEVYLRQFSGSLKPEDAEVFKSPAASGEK
T4 sequence (O75762 whole entry): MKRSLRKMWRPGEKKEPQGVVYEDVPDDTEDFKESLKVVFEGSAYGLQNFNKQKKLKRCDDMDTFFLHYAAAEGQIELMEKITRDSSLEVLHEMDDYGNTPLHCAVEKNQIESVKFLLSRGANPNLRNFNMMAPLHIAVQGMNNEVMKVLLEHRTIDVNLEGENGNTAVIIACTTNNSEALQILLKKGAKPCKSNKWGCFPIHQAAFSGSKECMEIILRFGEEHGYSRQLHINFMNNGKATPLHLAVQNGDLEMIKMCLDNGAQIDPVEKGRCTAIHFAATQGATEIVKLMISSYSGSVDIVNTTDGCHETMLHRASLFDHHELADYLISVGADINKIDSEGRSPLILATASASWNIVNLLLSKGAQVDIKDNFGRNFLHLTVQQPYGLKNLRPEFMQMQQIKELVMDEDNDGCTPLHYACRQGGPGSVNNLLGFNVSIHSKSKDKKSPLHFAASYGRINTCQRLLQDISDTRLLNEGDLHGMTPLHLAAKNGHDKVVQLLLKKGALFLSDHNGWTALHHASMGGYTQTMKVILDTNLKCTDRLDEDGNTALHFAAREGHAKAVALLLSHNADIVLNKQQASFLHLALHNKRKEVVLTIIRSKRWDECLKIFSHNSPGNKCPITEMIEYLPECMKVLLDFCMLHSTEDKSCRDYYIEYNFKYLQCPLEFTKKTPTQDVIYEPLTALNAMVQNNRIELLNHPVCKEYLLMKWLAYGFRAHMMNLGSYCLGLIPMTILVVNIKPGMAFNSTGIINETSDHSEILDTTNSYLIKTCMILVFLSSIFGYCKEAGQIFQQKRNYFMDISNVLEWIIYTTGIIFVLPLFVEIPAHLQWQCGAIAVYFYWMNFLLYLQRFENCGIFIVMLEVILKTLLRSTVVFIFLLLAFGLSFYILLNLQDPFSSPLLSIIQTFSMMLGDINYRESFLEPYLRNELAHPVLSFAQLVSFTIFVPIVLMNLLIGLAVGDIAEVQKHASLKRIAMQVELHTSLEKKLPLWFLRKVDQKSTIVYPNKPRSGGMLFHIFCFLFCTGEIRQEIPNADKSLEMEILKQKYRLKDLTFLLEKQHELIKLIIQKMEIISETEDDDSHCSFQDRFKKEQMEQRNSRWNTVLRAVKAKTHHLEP

SMILES | TAS2R49 screening result [1] | Activity on TAS2R10 (in words) [2] | EC50 [2, 5] [µM] | TAS2R10 screening result [2] | TRPV1 screening result [3] | TRPA1 screening result [4] | Activity on TRPV1 (in words) [3] | Activity on TRPA1 (in words) [4] | Activity on TAS2R49 (in words) [1] | EC50 [1] [µM] | EC50 [2] [µM] | EC50 ([4]; concentration/response curve, values with ≥ estimated, n.d. = non detectable, read-out: EC50 TRPA1) [µM] | EC50 [4] [µM]
COc1c2ccoc2cc2oc(=O)ccc12 [Compound 3, bergapten] | − | selective and strong agonist | 2.8 | +++ | − | − |  |  |  |  |  |  | 
C=CC(C)(C)c1cc2cc3c(cc2oc1=O)OC(C(C)(C)OC(C)=O)C3 (stereo not shown) [Compound 2, rutamarin] | − |  |  | − | + | − | agonist | did not activate |  |  |  |  | 
COc1cc2nc3occc3c(OC)c2cc1OC [Compound 7, kokusaginin] | − |  |  | − | − | − |  |  |  |  |  |  | 
COc1ccc2c(OC)c3ccoc3nc2c1OC [Compound 8, skimmianine] | − |  |  | − | − | − |  |  |  |  |  |  | 
COc1c2occc2cc2ccc(=O)oc12 [Compound 4, xanthotoxin] | ++ | responded |  | + | − | + |  | agonists | responded; also recorded: able to activate | 12 | ≥ 20.6 | ≥ 19.7 | 
CCCCCCCCCC(C)=O [Compound 9, 2-undecanone] | − |  |  | − | − | − |  |  |  |  |  |  | 
C[C@@H]1O[C@@H](OC[C@H]2O[C@@H](Oc3c(-c4ccc(O)c(O)c4)oc4cc(O)cc(O)c4c3=O)[C@H](O)[C@@H](O)[C@@H]2O)[C@H](O)[C@H](O)[C@H]1O [Compound 1, rutin] | − |  |  | − | − | − |  |  |  |  |  |  | 
CCCCCCCC(C)=O [Compound 10, 2-nonanone] | − |  |  | − | − | − |  |  |  |  |  |  | 
COc1c2ccoc2c(OC)c2oc(=O)ccc12 [Compound 5, isopimpinellin] | − |  | 12 | ++ | − | + |  | agonists |  |  |  |  | ≥ 22.8

Source: publication PMC6331789, “Phytochemicals from Ruta graveolens Activate TAS2R Bitter Taste Receptors and TRP Channels Involved in Gustation and Nociception” (Molecules, 2015)
